Assay results published in patent US11596639B2, “Substituted indole Mcl-1 inhibitors” (Vanderbilt University, priority 2016, dated 2023).
Where two headings read alike, the source gives them in different places.

Assays:
Mcl-1 = Mcl-1 (Homo sapiens (Human), UniProt Q07820); test: Fluorescence polarization anisotropy (FPA) competition assay, FITC-Bak or FITC-Bim BH3 peptide; assay type: binding; conditions: read-out: Ki for Inhibition of Mcl-1 by FPA assay
[1] = system: H929 human cancer cell lines; test: Cellular viability / proliferation (Cell TiterGlo, 72 h); assay type: cell-based
How it was run: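 Plating is at 1,000 cells/well in 10% FBS medium; after 24 h, compound is added as a 2-fold series starting at 50 μM with under 1% DMSO.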

[2] = Homo sapiens, NCI-H929, 72 h, read-out: GI50 on cellular proliferation of H929 human cancer cell lines, H929 cells, 72 h, Cell TiterGlo, 10% FBS

Chain of Mcl-1 (Q07820 172-327): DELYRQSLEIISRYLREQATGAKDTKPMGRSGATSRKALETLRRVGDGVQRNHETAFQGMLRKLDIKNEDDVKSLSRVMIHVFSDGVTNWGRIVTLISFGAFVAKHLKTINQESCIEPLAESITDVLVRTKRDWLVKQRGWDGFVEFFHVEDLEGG

Cc1cc(OCCCc2c3n(c4c(-c5c(C)nn(C)c5C)c(Cl)ccc24)[C@H](C)CN(c2cn(C)c4ccc(C(=O)N(C)Cc5cccnc5)cc24)C3=O)cc(C)c1Cl [Example 282, 3-[(4R)-7-chloro-10-[3-(4-chloro-3,5-dimethyl-phenoxy)propyl]-4-methyl-1-oxo-6-(1,3,5-trimethylpyrazol-4-yl)-3,4-dihydropyrazino[1,2-a]indol-2-yl]-N,1-dimethyl-N-(3-pyridylmethyl)indole-5-carboxamide]
Ki (Mcl-1): 8.4 nM | GI50 [1, 2]: 2400 nM

Cc1cc(OCCCc2c3n(c4c(-c5c(C)nn(C)c5C)c(Cl)ccc24)[C@H](C)CN(c2cccc4c2ccn4CC(=O)O)C3=O)cc(C)c1Cl [Example 134, (R)-2-(4-(7-Chloro-10-(3-(4-chloro-3,5-dimethylphenoxy)propyl)-4-methyl-1-oxo-6-(1,3,5-trimethyl-1H-pyrazol-4-yl)-3,4-dihydropyrazino[1,2-a]indol-2(1H)-yl)-1H-indol-1-yl)acetic acid]
Ki (Mcl-1): < 1 nM | GI50 [1, 2]: 11000 nM

Cc1cc(OCCCc2c3n(c4c(-c5c(C)nn(C)c5C)c(Cl)ccc24)[C@H](C)CN(c2cccc4cc(C(=O)O)n(C)c24)C3=O)cc(C)c1Cl [Example 178, (R)-7-(7-Chloro-10-(3-(4-chloro-3,5-dimethylphenoxy)propyl)-4-methyl-1-oxo-6-(1,3,5-trimethyl-1H-pyrazol-4-yl)-3,4-dihydropyrazino[1,2-a]indol-2(1H)-yl)-1-methyl-1H-indole-2-carboxylic acid]
Ki (Mcl-1): < 1 nM | GI50 [1, 2]: < 200 nM

Cc1cc(OCCCc2c3n(c4c(-c5c(C)nn(C)c5C)c(Cl)ccc24)[C@H](C)CN(c2cccc4cccc(C(=O)O)c24)C3=O)cc(C)c1Cl [Example 191, (R)-8-(7-Chloro-10-(3-(4-chloro-3,5-dimethylphenoxy)propyl)-4-methyl-1-oxo-6-(1,3,5-trimethyl-1H-pyrazol-4-yl)-3,4-dihydropyrazino[1,2-a]indol-2(1H)-yl)-1-naphthoic acid]
Ki (Mcl-1): < 1 nM | GI50 [1, 2]: 3200 nM

Cc1cc(N2C[C@@H](C)n3c(c(CCCOc4cc(C)c(Cl)c(C)c4)c4ccc(Cl)c(-c5c(C)ncnc5C)c43)C2=O)c2c(c1)cc(C(N)=O)n2C [Example 376, (R)-7-(7-Chloro-10-(3-(4-chloro-3,5-dimethylphenoxy)propyl)-6-(4,6-dimethylpyrimidin-5-yl)-4-methyl-1-oxo-3,4-dihydropyrazino[1,2-a]indol-2(1H)-yl)-1,5-dimethyl-1H-indole-2-carboxamide]
Ki (Mcl-1): 6.5 nM | GI50 [1, 2]: 750 nM

Cc1cccnc1Cn1c(C(=O)O)cc2cccc(N3C[C@@H](C)n4c(c(CCCOc5cc(C)c(Cl)c(C)c5)c5ccc(Cl)c(-c6c(C)nn(C)c6C)c54)C3=O)c21 [Example 387, (R)-7-(7-Chloro-10-(3-(4-chloro-3,5-dimethylphenoxy)propyl)-4-methyl-1-oxo-6-(1,3,5-trimethyl-1H-pyrazol-4-yl)-3,4-dihydropyrazino[1,2-a]indol-2(1H)-yl)-1-((3-methylpyridin-2-yl)methyl)-1H-indole-2-carboxylic acid]
Ki (Mcl-1): 2.1 nM | GI50 [1, 2]: 3600 nM

Cc1cc(OCCCc2c3n(c4c(-c5c(C)nn(C)c5C)c(Cl)ccc24)[C@H](C)CN(c2cc(C(=O)O)c4ccn(CCN5CCOCC5)c4c2)C3=O)cc(C)c1Cl [Example 94, (R)-6-(7-chloro-10-(3-(4-chloro-3,5-dimethylphenoxy)propyl)-4-methyl-1-oxo-6-(1,3,5-trimethyl-1H-pyrazol-4-yl)-3,4-dihydropyrazino[1,2-a]indol-2(1H)-yl)-1-(2-morpholinoethyl)-1H-indole-4-carboxylic acid]
Ki (Mcl-1): < 1 nM | GI50 [1, 2]: 1500 nM

CCn1nc2c(N3C[C@@H](C)n4c(c(CCCOc5cc(C)c(Cl)c(C)c5)c5ccc(Cl)c(-c6c(C)nn(C)c6C)c54)C3=O)cccc2c1C(=O)O [Example 117, (R)-7-(7-chloro-10-(3-(4-chloro-3,5-dimethylphenoxy)propyl)-4-methyl-1-oxo-6-(1,3,5-trimethyl-1H-pyrazol-4-yl)-3,4-dihydropyrazino[1,2-a]indol-2(1H)-yl)-2-ethyl-2H-indazole-3-carboxylic acid]
Ki (Mcl-1): < 1 nM | GI50 [1, 2]: 390 nM

Cc1nn(C)c(C)c1-c1c(Cl)ccc2c(CCCOc3ccc(F)cc3)c3n(c12)[C@H](C)CN(c1cn(C)c2ccc(C(=O)O)cc12)C3=O [Example 410, (R)-3-(7-Chloro-10-(3-(4-fluorophenoxy)propyl)-4-methyl-1-oxo-6-(1,3,5-trimethyl-1H-pyrazol-4-yl)-3,4-dihydropyrazino[1,2-a]indol-2(1H)-yl)-1-methyl-1H-indole-5-carboxylic acid]
Ki (Mcl-1): 1.4 nM | GI50 [1, 2]: 4000 nM

Cc1cc(OCCCc2c3n(c4c(-c5c(C)nn(C)c5C)c(Cl)ccc24)[C@H](C)CN(c2cn(C)c4ccc(-c5ccn(C)n5)cc24)C3=O)cc(C)c1Cl [Example 388, (R)-7-Chloro-10-(3-(4-chloro-3,5-dimethylphenoxy)propyl)-4-methyl-2-(1-methyl-5-(1-methyl-1H-pyrazol-3-yl)-1H-indol-3-yl)-6-(1,3,5-trimethyl-1H-pyrazol-4-yl)-3,4-dihydropyrazino[1,2-a]indol-1(2H)-one]
Ki (Mcl-1): 1.5 nM | GI50 [1, 2]: 330 nM

Cc1cc(OCCCc2c3n(c4c(-c5c(C)nc(CN6CCN(C)C(=O)C6)nc5C)c(Cl)ccc24)[C@H](C)CN(c2cn(C)c4ccc(C(=O)O)cc24)C3=O)cc(C)c1Cl [Example 432, (R)-3-(7-Chloro-10-(3-(4-chloro-3,5-dimethylphenoxy)propyl)-6-(4,6-dimethyl-2-((4-methyl-3-oxopiperazin-1-yl)methyl)pyrimidin-5-yl)-4-methyl-1-oxo-3,4-dihydropyrazino[1,2-a]indol-2(1H)-yl)-1-methyl-1H-indole-5-carboxylic acid]
Ki (Mcl-1): < 1 nM | GI50 [1, 2]: 210 nM

Cc1cc(OCCCc2c3n(c4c(-c5c(C)nn(C)c5C)c(Cl)ccc24)[C@H](C)CN(c2cccc4cc(C(=O)O)n(CC5CCO5)c24)C3=O)cc(C)c1Cl (stereo partly drawn) [Example 374, 7-((R)-7-Chloro-10-(3-(4-chloro-3,5-dimethylphenoxy)propyl)-4-methyl-1-oxo-6-(1,3,5-trimethyl-1H-pyrazol-4-yl)-3,4-dihydropyrazino[1,2-a]indol-2(1H)-yl)-1-(oxetan-2-ylmethyl)-1H-indole-2-carboxylic acid]
Ki (Mcl-1): 3.7 nM | GI50 [1, 2]: 1500 nM

Cc1cc(OCCCc2c3n(c4c(-c5c(C)nn(C)c5C)c(Cl)ccc24)[C@H](C)CN(c2nccc4cc(C(=O)O)ccc24)C3=O)cc(C)c1Cl [Example 264, 1-[(4R)-7-chloro-10-[3-(4-chloro-3,5-dimethyl-phenoxy)propyl]-4-methyl-1-oxo-6-(1,3,5-trimethylpyrazol-4-yl)-3,4-dihydropyrazino[1,2-a]indol-2-yl]isoquinoline-6-carboxylic acid]
Ki (Mcl-1): < 1 nM | GI50 [1, 2]: 560 nM

Cc1cc(OCCCc2c3n(c4c(-c5c(C)nn(C)c5C)c(Cl)ccc24)[C@H](C)CN(c2cn(C)c4c(C#N)cc(C(=O)O)cc24)C3=O)cc(C)c1Cl [Example 244, (R)-3-(7-Chloro-10-(3-(4-chloro-3,5-dimethylphenoxy)propyl)-4-methyl-1-oxo-6-(1,3,5-trimethyl-1H-pyrazol-4-yl)-3,4-dihydropyrazino[1,2-a]indol-2(1H)-yl)-7-cyano-1-methyl-1H-indole-5-carboxylic acid]
Ki (Mcl-1): < 1 nM | GI50 [1, 2]: 400 nM

Cc1cc(N2C[C@@H](C)n3c(c(CCCOc4cc(C)c(Cl)c(C)c4)c4ccc(Cl)c(-c5c(C)nn(C)c5C)c43)C2=O)c2c(c1)c(C(=O)O)cn2C [Example 183, (R)-7-(7-chloro-10-(3-(4-chloro-3,5-dimethylphenoxy)propyl)-4-methyl-1-oxo-6-(1,3,5-trimethyl-1H-pyrazol-4-yl)-3,4-dihydropyrazino[1,2-a]indol-2(1H)-yl)-1,5-dimethyl-1H-indole-3-carboxylic acid]
Ki (Mcl-1): < 1 nM | GI50 ([1]; read-out: GI50 on cellular proliferation of H929 human cancer cell lines, H929 cells, 72 h, Cell TiterGlo, 10% FBS): 360 nM

Cc1cc(OCCCc2c3n(c4c(-c5c(C)nn(C)c5C)c(Cl)ccc24)[C@H](C)CN(c2cc(C(=O)O)c4cc[nH]c4c2)C3=O)cc(C)c1Cl [Example 101, (R)-6-(7-chloro-10-(3-(4-chloro-3,5-dimethylphenoxy)propyl)-4-methyl-1-oxo-6-(1,3,5-trimethyl-1H-pyrazol-4-yl)-3,4-dihydropyrazino[1,2-a]indol-2(1H)-yl)-1H-indole-4-carboxylic acid]
Ki (Mcl-1): < 1 nM | GI50 [1, 2]: 2100 nM

Cc1cc(OCCCc2c3n(c4c(-c5c(C)nn(C)c5C)c(Cl)ccc24)CCCN(c2cc(C(=O)O)cc4c2cnn4C)C3=O)cc(C)c1Cl [Example 45, 4-[8-chloro-11-[3-(4-chloro-3,5-dimethyl-phenoxy)propyl]-1-oxo-7-(1,3,5-trimethylpyrazol-4-yl)-4,5-dihydro-3H-[1,4]diazepino[1,2-a]indol-2-yl]-1-methyl-indazole-6-carboxylic acid]
Ki (Mcl-1): 1.7 nM | GI50 [1, 2]: 3800 nM

Cc1cc(OCCCc2c3n(c4c(-c5c(C)nn(C)c5C)c(Cl)ccc24)[C@H](C)CN(c2cn(C)c4cc(-c5nnn(C)n5)ccc24)C3=O)cc(C)c1Cl [Example 370, (R)-7-Chloro-10-(3-(4-chloro-3,5-dimethylphenoxy)propyl)-4-methyl-2-(1-methyl-6-(2-methyl-2H-tetrazol-5-yl)-1H-indol-3-yl)-6-(1,3,5-trimethyl-1H-pyrazol-4-yl)-3,4-dihydropyrazino[1,2-a]indol-1(2H)-one]
Ki (Mcl-1): 2.8 nM | GI50 [1, 2]: 4500 nM

Cc1cc(OCCCc2c3n(c4c(-c5c(C)nn(C)c5C)c(Cl)ccc24)[C@H](C)CN(c2ccc4c(c2)c(C(=O)O)nn4C)C3=O)cc(C)c1Cl [Example 116, (R)-5-(7-Chloro-10-(3-(4-chloro-3,5-dimethylphenoxy)propyl)-4-methyl-1-oxo-6-(1,3,5-trimethyl-1H-pyrazol-4-yl)-3,4-dihydropyrazino[1,2-a]indol-2(1H)-yl)-1-methyl-1H-indazole-3-carboxylic acid]
Ki (Mcl-1): < 1 nM | GI50 [1, 2]: 9700 nM
